Read-outs that look alike come from different tables or passages of the source. Blank lines part the entries; values can stand above or below the compound they belong to.
Key:
P450 2C9 = P450 2C9 (Homo sapiens, UniProt P11712); assay: P450 inhibition 2C9; assay type: in vitro ADME
Experimental: (§1) Certain exemplified compounds were examined for ADMET (absorption, distribution, metabolism, excretion and toxicity) profiling using conventional assays with the results shown in the Tables 3A-3C below.
(§2) Examples 1 and 3 were evaluated as inhibitors of the five P450s that are the source of most DDI issues. […] The tested compounds meet drug property criteria for IV administration.

[1] = Experimentally determined log D; assay type: physicochemical
[2] = Pharmacokinetics after IV bolus in CD-1 mice; assay type: in vivo
Experimental: PK parameters were measured and reported in Table 4 as follows: C0 represents concentration in ng/ml at t=0 min; AUC0-last represents area under the curve for t=0 min to last time point; AUC0-∞ represents area under the curve for t=0 min to infinity.

human PF4 = molecular target: T1, human PF4 (Homo sapiens, UniProt P02776); assay: Inhibition of PF4 tetramer formation (BS3 cross-linking, SDS-PAGE); assay type: biochemical; conditions: for IC50: read-out: IC50 of PF4 tetramer formation inhibition
T1 construct: PF4 is a 70 amino acid, lysine-rich 7.8 kDa platelet-specific protein; made in house; host or cells: Escherichia coli BL21DE3 pLysS (pT7-7) and/or Drosophila S2 cells
T1 sequence (P02776 32-101): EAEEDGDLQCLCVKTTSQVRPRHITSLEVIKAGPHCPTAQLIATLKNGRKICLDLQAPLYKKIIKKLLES
In short: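 Recombinant human wild-type PF4 (E. coli-expressed, heparin-purified), 10 μg/ml in PBS, incubated with compound 15 min at 37° C or 60 min at room temperature, then cross-linked with 0.2 mM BS3 for 30 min at room temperature. Reducing 12% SDS-PAGE; bands quantified as % tetramer, trimer, dimer, monomer versus compound-free control.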

P450 3A4 (midazolam) = P450 3A4 (midazolam) (Homo sapiens, UniProt P08684); assay: P450 inhibition 3A4 (midazolam); assay type: in vitro ADME
Experimental: as §1, §2

P450 2C19 = P450 2C19 (Homo sapiens, UniProt P33261); assay: P450 inhibition 2C19; assay type: in vitro ADME
Experimental: as §1, §2

[3] = Experimentally determined pKa; assay type: physicochemical
[4] = Cytotoxicity HepG2 (MTS reduction); assay type: cell-based; conditions: human, HepG2 cells; read-out: Cytotox HepG2 EC50
[5] = mouse, plasma, CD-1 mice, 1 mg/kg IV bolus

Chain of P450 3A4 (midazolam) (P08684 whole entry): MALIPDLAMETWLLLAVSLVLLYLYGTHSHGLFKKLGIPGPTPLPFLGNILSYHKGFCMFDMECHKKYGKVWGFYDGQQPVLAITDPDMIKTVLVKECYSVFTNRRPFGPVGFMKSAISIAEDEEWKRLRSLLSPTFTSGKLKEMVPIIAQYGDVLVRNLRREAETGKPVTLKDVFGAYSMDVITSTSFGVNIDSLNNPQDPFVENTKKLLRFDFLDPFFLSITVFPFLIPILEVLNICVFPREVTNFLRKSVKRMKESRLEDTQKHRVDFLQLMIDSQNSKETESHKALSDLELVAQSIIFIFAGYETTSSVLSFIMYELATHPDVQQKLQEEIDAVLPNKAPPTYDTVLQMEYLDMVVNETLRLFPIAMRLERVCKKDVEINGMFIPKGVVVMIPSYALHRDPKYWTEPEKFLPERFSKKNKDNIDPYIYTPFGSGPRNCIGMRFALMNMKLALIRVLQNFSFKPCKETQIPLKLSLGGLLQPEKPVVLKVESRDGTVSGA
Chain of P450 2C19 (P33261 whole entry): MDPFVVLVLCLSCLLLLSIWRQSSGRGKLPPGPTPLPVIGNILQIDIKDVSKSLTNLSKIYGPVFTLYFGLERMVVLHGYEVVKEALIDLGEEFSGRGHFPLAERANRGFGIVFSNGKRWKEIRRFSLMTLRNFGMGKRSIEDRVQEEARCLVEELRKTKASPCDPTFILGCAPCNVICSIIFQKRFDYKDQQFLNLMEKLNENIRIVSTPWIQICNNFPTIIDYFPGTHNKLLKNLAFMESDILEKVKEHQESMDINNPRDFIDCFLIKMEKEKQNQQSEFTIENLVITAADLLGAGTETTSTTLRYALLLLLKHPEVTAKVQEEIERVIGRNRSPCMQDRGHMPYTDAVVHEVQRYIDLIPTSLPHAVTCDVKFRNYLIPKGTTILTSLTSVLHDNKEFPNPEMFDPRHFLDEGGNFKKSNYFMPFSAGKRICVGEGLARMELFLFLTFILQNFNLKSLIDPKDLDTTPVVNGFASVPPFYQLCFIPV
Chain of P450 2C9 (P11712 whole entry): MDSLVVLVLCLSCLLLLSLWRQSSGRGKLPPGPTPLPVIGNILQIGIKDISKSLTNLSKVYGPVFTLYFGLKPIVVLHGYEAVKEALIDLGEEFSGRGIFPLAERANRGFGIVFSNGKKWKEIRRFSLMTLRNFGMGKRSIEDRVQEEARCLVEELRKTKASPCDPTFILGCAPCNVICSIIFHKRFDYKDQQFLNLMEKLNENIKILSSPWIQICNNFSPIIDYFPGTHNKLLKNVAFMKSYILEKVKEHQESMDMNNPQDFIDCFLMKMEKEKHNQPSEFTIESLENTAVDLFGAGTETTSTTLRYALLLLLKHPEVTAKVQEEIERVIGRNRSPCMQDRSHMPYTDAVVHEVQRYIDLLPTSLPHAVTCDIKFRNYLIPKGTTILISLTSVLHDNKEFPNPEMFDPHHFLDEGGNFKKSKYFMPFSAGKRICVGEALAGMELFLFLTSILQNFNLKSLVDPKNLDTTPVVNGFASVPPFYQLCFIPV

SMILES: CC(=O)C1C(=O)c2ccc(C(=O)c3ccc4c(c3)C(=O)C(C(C)=O)C4=O)cc2C1=O (stereo not drawn) [Example 1, 5,5′-carbonylbis(2-acetyl-1h-indene-1,3(2h)-dione)]
- IC50 (P450 2C9): 31.9 µM
- inhibition of P450 2C9 (P450 2C9): only moderate inhibition
- logD [1]: 0.53
- time the concentration was sustained above 1 μM ([2]; 1 mg/kg, CD-1 mice (FIG. 5)): greater than 4 hours
- clearance ([2]; CD-1 mice, 1 mg/kg IV): low clearance
- half-life ([2]; CD-1 mice, 1 mg/kg IV): long half-life
- volume of distribution ([2]; CD-1 mice, 1 mg/kg IV): low clearance and volume of distribution
- AUC(0-inf) [2, 5]: 9350 ± 778 ng·h/mL
- AUC(0-t) [2, 5]: 9190 ± 704 ng·h/mL
- half-life ([2]; mouse, plasma, CD-1 mice, 1 mg/kg IV bolus, average of 3 mice, read-out: t1/2 (converted)): 4.59 ± 0.584 h
- C0 ([2]; mouse, plasma, CD-1 mice, 1 mg/kg IV bolus, concentration at t=0 min): 15100 ± 2070 ng/mL
- clearance ([2]; mouse, plasma, CD-1 mice, 1 mg/kg IV bolus, read-out: Clearance): 1.79 ± 0.147 mL/min/kg
- Vd ([2]; mouse, plasma, CD-1 mice, 1 mg/kg IV bolus, read-out: Volume of distribution (Vdss)): 0.448 ± 0.0121 L/kg
- IC50 (human PF4): 7 µM
- IC50 (P450 3A4 (midazolam)): > 100 µM
- inhibition of P450 3A4 midazolam (P450 3A4 (midazolam)): no inhibition
- IC50 (P450 2C19): > 100 µM
- inhibition of P450 2C19 (P450 2C19): no inhibition
- pKa [3]: 1.99
- EC50 [4]: > 1000 µg/mL

- inhibition of P450 2C9 (P450 2C9): only moderate inhibition
- IC50 (P450 2C9; read-out: P450 Inhibition IC50 2C9): 16.7 µM
- inhibition at 100 µM (human PF4; 100 μM inhibitor, read-out: % inhibition of PF4 tetramer formation at single concentration of inhibitor): 100%
- inhibition of PF4 tetramerization (human PF4; FIG. 6A): dose-dependent inhibition
- IC50 (human PF4): 2 µM
- inhibition of P450 3A4 midazolam (P450 3A4 (midazolam)): no inhibition
- IC50 (P450 3A4 (midazolam); midazolam, read-out: P450 Inhibition IC50 3A4 (midazolam)): > 100 µM
- inhibition of P450 2C19 (P450 2C19): no inhibition
- IC50 (P450 2C19; read-out: P450 Inhibition IC50 2C19): > 100 µM
SMILES: CCOC(=O)C1C(=O)c2ccc(C(=O)c3ccc4c(c3)C(=O)C(C(=O)OCC)C4=O)cc2C1=O (stereo not drawn) [Example 3, diethyl 5,5′-carbonylbis(1,3-dioxo-2,3-dihydro-1h-indene-2-carboxylate)]
- EC50 [4]: > 500 µg/mL
